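Five concentrations, 48 hours, 96-well plates. At the GI50, growth is halved.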 Activity calls are given as the source filed them. No stated cut-off is given here; in the data, active = GI50 up to about 1.1 µM and inactive = higher.
Tests used:
Assay in all cases: inhibition of tumour cell growth, NCI panel, 48 h
786-0 = system: 786-0
MOLT-4 = system: MOLT-4
RXF 393 = system: RXF 393
SF-539 = system: SF-539
CCRF-CEM = system: CCRF-CEM
HOP-92 = system: HOP-92
UACC-257 = system: UACC-257
Malme-3M = system: Malme-3M
MCF7 = system: MCF7
HCT-116 = system: HCT-116
PC-3 = system: PC-3
SF-268 = system: SF-268
SW-620 = system: SW-620
HCT-15 = system: HCT-15
UO-31 = system: UO-31
MDA-MB-231 = system: MDA-MB-231
OVCAR-8 = system: OVCAR-8
HOP-62 = system: HOP-62
M14 = system: M14
OVCAR-4 = system: OVCAR-4

Structure (SMILES)	GI50 (786-0)	GI50 (MOLT-4)	GI50 (RXF 393)	GI50 (SF-539)	GI50 (CCRF-CEM)	GI50 (HOP-92)	GI50 (UACC-257)	GI50 (Malme-3M)	GI50 (MCF7)	GI50 (HCT-116)	GI50 (PC-3)	GI50 (SF-268)	GI50 (SW-620)	GI50 (HCT-15) [µM]	GI50 (UO-31)	GI50 (MDA-MB-231)	GI50 (OVCAR-8)	GI50 (HOP-62)	GI50 (M14)	GI50 (OVCAR-4)
CCOC(=O)C(C)c1nc2cc(C(F)(F)F)ccc2[nH]c1=O (stereo not given)	> 100 µM (inactive)	85.5 µM (inactive)	> 100 µM (inactive)	> 100 µM (inactive)	> 100 µM (inactive)	71.1 µM (inactive)	69.8 µM (inactive)	> 100 µM (inactive)	> 100 µM (inactive)	88.9 µM (inactive)	49 µM (inactive)	> 100 µM (inactive)	> 100 µM (inactive)	> 100	> 100 µM (inactive)	> 100 µM (inactive)	> 100 µM (inactive)	> 100 µM (inactive)	> 100 µM (inactive)	81.5 µM (inactive)
COc1ccc(C(=O)Nc2ccc3oc(-c4ccccc4)nc3c2)cc1	92.7 µM (inactive)	> 100 µM (inactive)	> 100 µM (inactive)	32.5 µM (inactive)	> 100 µM (inactive)	> 100 µM (inactive)	> 100 µM (inactive)	> 100 µM (inactive)	> 100 µM (inactive)	> 100 µM (inactive)	> 100 µM (inactive)	> 100 µM (inactive)	> 100 µM (inactive)	> 100	0.227 µM (active)	> 100 µM (inactive)	22.3 µM (inactive)	76.6 µM (inactive)	> 100 µM (inactive)	> 100 µM (inactive)
C/C(=C\c1csc(C)n1)[C@@H]1C[C@@H]2O[C@@H]2CCC[C@H](C)[C@H](O)[C@@H](C)C(=O)C(C)(C)[C@@H](O)CC(=O)O1.C/C(=C\c1csc(C)n1)[C@@H]1C[C@@H]2O[C@]2(C)CCC[C@H](C)[C@H](O)[C@@H](C)C(=O)C(C)(C)[C@@H](O)CC(=O)O1	0.005 µM (active)	0.00738 µM (active)	0.00266 µM (active)	0.00511 µM (active)	0.0478 µM (active)	0.0698 µM (active)	0.145 µM (active)	0.129 µM (active)	0.00293 µM (active)	0.00173 µM (active)	0.00469 µM (active)	0.0122 µM (active)	0.00255 µM (active)	0.00218	0.0297 µM (active)	0.00893 µM (active)	0.0048 µM (active)	0.0258 µM (active)	0.00266 µM (active)	1 µM (active)
CC(=O)NC1C(OCc2ccccc2)OC(CO)C(O)C1OCC(=O)NC(C(=O)NC(CCC(=O)NCCCCCC(=O)Nc1ccc2c(c1)CN1C(=O)c3ccccc3C1=N2)C(N)=O)C(C)C (stereo not given)	16.4 µM (inactive)	> 100 µM (inactive)	21.8 µM (inactive)	19.1 µM (inactive)	> 100 µM (inactive)	95.7 µM (inactive)	25.9 µM (inactive)	23.8 µM (inactive)	16.9 µM (inactive)	36.2 µM (inactive)	28.5 µM (inactive)	19.7 µM (inactive)	50.6 µM (inactive)	52.2	47.4 µM (inactive)	25.5 µM (inactive)	26.4 µM (inactive)	20.3 µM (inactive)	40.6 µM (inactive)	21.9 µM (inactive)
CCN1c2cc(Br)cc3[nH]c(=O)n(c23)CCC1C (stereo not given)	14.3 µM (inactive)	4.32 µM (inactive)	11.6 µM (inactive)	34.2 µM (inactive)	12 µM (inactive)	1.49 µM (inactive)	17.4 µM (inactive)	21.5 µM (inactive)	19.7 µM (inactive)	14.8 µM (inactive)	17.2 µM (inactive)	14.2 µM (inactive)	5.48 µM (inactive)	14.5	14 µM (inactive)	17.3 µM (inactive)	14.4 µM (inactive)	18 µM (inactive)	17.2 µM (inactive)	20 µM (inactive)

From ChEMBL document CHEMBL1201862, “PubChem BioAssay data set” (2004)
